Data: patent US20070270475A1, “4-Methoxy-Pyrrolidine-2-Carboxylic Acid Compounds and Derivatives Thereof as Hepatitis C Virus Inhibitors” (priority 2004, published 2007)

biological target: T1, HCV RNA Polymerase, recombinant full-length NS5B, genotype 1b (Hepatitis C virus genotype 1b, UniProt Q9WMX2); assay: In vitro HCV RNA-dependent RNA polymerase inhibition assay, genotype 1b full-length enzyme; assay type: biochemical, HCV genotype 1b; conditions: genotype 1b full-length NS5B, 4 nM enzyme
T1 construct: Recombinant full-length NS5B; made in house; host or cells: baculovirus (insect cells)
T1 sequence (Q9WMX2 2420-3010): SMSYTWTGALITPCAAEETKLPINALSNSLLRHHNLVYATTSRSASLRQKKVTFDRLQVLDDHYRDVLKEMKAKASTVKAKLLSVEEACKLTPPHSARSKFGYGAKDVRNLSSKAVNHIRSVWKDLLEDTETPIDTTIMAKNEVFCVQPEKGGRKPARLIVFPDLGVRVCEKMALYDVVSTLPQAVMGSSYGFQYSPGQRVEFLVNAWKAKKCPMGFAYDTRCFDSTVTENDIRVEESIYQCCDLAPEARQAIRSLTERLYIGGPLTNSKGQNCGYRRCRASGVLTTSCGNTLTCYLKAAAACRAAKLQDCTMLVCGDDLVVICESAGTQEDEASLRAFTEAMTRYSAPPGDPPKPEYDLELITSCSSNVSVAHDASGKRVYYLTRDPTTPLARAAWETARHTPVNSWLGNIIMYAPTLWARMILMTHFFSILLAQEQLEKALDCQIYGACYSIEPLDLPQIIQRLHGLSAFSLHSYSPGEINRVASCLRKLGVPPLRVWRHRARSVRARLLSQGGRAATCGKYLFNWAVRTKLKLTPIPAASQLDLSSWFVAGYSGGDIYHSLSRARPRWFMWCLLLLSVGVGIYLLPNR
Protocol: In Vitro Detection of inhibitors of HCV RNA-Dependent RNA Polymerase Activity
Incorporation of [^33P]-GMP into RNA was followed by absorption of the biotin labelled RNA polymer by streptavidin containing SPA beads. A synthetic template consisting of biotinylated 13mer-oligoG hybridised to polyrC was used as a homopolymer substrate.
b) Genotype 1b Full-Length Enzyme
Reaction Conditions were 0.5 μM [^33P]-GTP (20 Ci/mMol), 1 mM Dithiothreitol, 20 mM MgCl2, 5 mM MnCl2, 20 mM Tris-HCl, pH7.5, 1.6 μg/mL polyC/0.256 μM biotinylated oligoG13, 10% glycerol, 0.01% NP-40, 0.2 u/μL RNasin and 50 mM NaCl.
HCV RNA Polymerase (Recombinant full-length NS5B (Lohmann et al, J. Virol. 71 (11), 1997, 8416. ‘Biochemical properties of hepatitis C virus NS5B RNA-dependent RNA polymerase and identification of amino acid sequence motifs essential for enzymatic activity’) expressed in baculovirus and purified to homogeneity) was added to 4 nM final concentration.
5× concentrated assay buffer mix was prepared using 1M MnCl2 (0.25 mL), glycerol (2.5 mL), 10% NP-40 (0.025 mL) and Water (7.225 mL), Total 10 mL.
2× concentrated enzyme buffer contained 1M-Tris-HCl, pH7.5 (0.4 mL), 5M NaCl (0.2 mL), 1M-MgCl2(0.4 mL), glycerol (1 mL), 10% NP-40 (10 μL), 1M DTT (20 μL) and water (7.97 mL), Total 10 mL.
Substrate Mix was prepared using 5x Concentrated assay Buffer mix (4 μL), [^33P]-GTP (10 μCi/μL, 0.02 μL), 25 μM GTP (0.4 μL), 40 μ/μL RNasin (0.1 μL), 20 μg/mL polyrC/biotinylated-oligorG (1.6 μL), and Water (3.94 μL), Total 10 μL.
Enzyme Mix was prepared by adding 1 mg/ml full-length NS5B polymerase (1.5 μL) to 2.81 mL 2×-concentrated enzyme buffer.
The Assay was set up using compound (1μL), Substrate Mix (10 μL), and Enzyme Mix (added last to start reaction) (10 μL), Total 21 μL.
The reaction was performed in a U-bottomed, white, 96-well plate. The reaction was mixed on a plate-shaker, after addition of the Enzyme, and incubated for 1 h at 22° C. After this time, the reaction was stopped by addition of 40 μL 1.875 mg/ml streptavidin SPA beads in 0.1 M EDTA. The beads were incubated with the reaction mixture for 1 h at 22° C. after which 120 μL 0.1 M EDTA in PBS was added. The plate was sealed, mixed centrifuged and incorporated radioactivity determined by counting in a Trilux (Wallac) or Topcount (Packard) Scintillation Counter.
After subtraction of background levels without enzyme, any reduction in the amount of radioactivity incorporated in the presence of a compound, compared to that in the absence, was taken as a measure of the level of inhibition. Ten concentrations of compounds were tested in three- or fivefold dilutions. From the counts, percentage of inhibition at highest concentration tested or IC50s for the compounds were calculated using GraFit 3, GraFit 4 or GraFit 5 (Erithacus Software Ltd.) software packages or a data evaluation macro for Excel based on XLFit software (IDBS).

Structure (SMILES)	IC50
COCC1CC(CC(C)C)(C(=O)O)N(C(=O)c2ccc(C(C)(C)C)c(OC)c2)C1c1ncc(C)s1 (single isomer, unassigned; enantiomer a) [Compound D, reference compound]	200 to 500 nM
COC[C@H]1C[C@@](Cc2cscn2)(C(=O)O)N(C(=O)c2ccc(C(C)(C)C)c(OC)c2)[C@H]1c1nccs1 (racemic) [Example 3, rel-(2R,4S,5R)-1-(3-Methoxy-4-tert-butylbenzoyl)-4-(methoxymethyl)-5-(1,3-thiazol-2-yl)-2-(1,3-thiazol-4-ylmethyl)pyrrolidine-2-carboxylic acid]	< 200 nM
COC[C@H]1C[C@@](CC(C)C)(C(=O)O)N(C(=O)c2ccc(C(C)(C)C)c(OC)c2)[C@H]1c1ncc(C)s1 (racemic) [Compound C, rel-(2S,4S,5R)-2-isobutyl-1-(3-methoxy-4-tert-butylbenzoyl)-4-methoxymethyl-5-(5-methyl-1,3-thiazol-2-yl)pyrrolidine-2-carboxylic acid, reference compound]	> 500 nM
COC[C@H]1C[C@@](Cc2cscn2)(C(=O)O)N(C(=O)c2ccc(C(C)(C)C)c(OC)c2)[C@H]1c1ncc(C)s1 (single isomer, unassigned; enantiomer a) [Example 2]	< 200 nM
COC[C@H]1C[C@@](Cc2cscn2)(C(=O)O)N(C(=O)c2ccc(C(C)(C)C)c(OC)c2)[C@H]1c1nccs1 (single isomer, unassigned; enantiomer a) [Example 12]	< 200 nM
COC[C@H]1C[C@@](Cc2ccsn2)(C(=O)O)N(C(=O)c2ccc(C(C)(C)C)c(OC)c2)[C@H]1c1nccs1 (racemic) [Example 4, rel-(2R,4S,5R)-1-(3-Methoxy-4-tert-butylbenzoyl)-4-(methoxymethyl)-5-(1,3-thiazol-2-yl)-2-(1,2-thiazol-3-ylmethyl)pyrrolidine-2-carboxylic acid]	< 200 nM
COC[C@H]1C[C@@](Cc2ccsn2)(C(=O)O)N(C(=O)c2ccc(C(C)(C)C)c(OC)c2)[C@H]1c1nccs1 (single isomer, unassigned; enantiomer a) [Example 5]	< 200 nM
COC[C@H]1C[C@@](Cc2ccsn2)(C(=O)O)N(C(=O)c2ccc(C(C)(C)C)c(OC)c2)[C@H]1c1ncc(C)s1 (racemic) [Example 9, rel-(2R,4S,5R)-1-(3-Methoxy-4-tert-butylbenzoyl)-4-(methoxymethyl)-5-(5-methyl-1,3-thiazol-2-yl)-2-(1,2-thiazol-3-ylmethyl)pyrrolidine-2-carboxylic acid]	< 200 nM
COC[C@H]1C[C@@](Cn2cccn2)(C(=O)O)N(C(=O)c2ccc(C(C)(C)C)c(OC)c2)[C@H]1c1ncc(C)s1 (racemic) [Example 10, rel-(2R,4S,5R)-1-(3-Methoxy-4-tert-butylbenzoyl)-4-(methoxymethyl)-5-(5-methyl-1,3-thiazol-2-yl)-2-(1H-pyrazol-1-ylmethyl)pyrrolidine-2-carboxylic acid]	< 200 nM
COC[C@H]1C[C@@](CC(C)C)(C(=O)O)N(C(=O)c2ccc(C(C)(C)C)c(OC)c2)[C@H]1c1nccs1 [Compound B, (2S,4S,5R)-2-isobutyl-1-(3-methoxy-4-tert-butylbenzoyl)-4-methoxymethyl-5-(1,3-thiazol-2-yl)pyrrolidine-2-carboxylic acid, reference compound]	200 to 500 nM
COC[C@H]1C[C@@](Cn2cccn2)(C(=O)O)N(C(=O)c2ccc(C(C)(C)C)c(OC)c2)[C@H]1c1nccs1 (single isomer, unassigned) [Example 7]	< 200 nM
COC[C@H]1C[C@@](Cc2nccs2)(C(=O)O)N(C(=O)c2ccc(C(C)(C)C)c(OC)c2)[C@H]1c1ncc(C)s1 (racemic) [Example 8, rel-(2R,4S,5R)-1-(3-Methoxy-4-tert-butylbenzoyl)-4-(methoxymethyl)-5-(5-methyl-1,3-thiazol-2-yl)-2-(1,3-thiazol-2-ylmethyl)pyrrolidine-2-carboxylic acid]	< 200 nM
COC[C@H]1C[C@@](Cc2cscn2)(C(=O)O)N(C(=O)c2ccc(C(C)(C)C)c(OC)c2)[C@H]1c1ncc(C)s1 (racemic) [Example 1, rel-(2R,4S,5R)-1-(3-Methoxy-4-tert-butylbenzoyl)-4-(methoxymethyl)-5-(5-methyl-1,3-thiazol-2-yl)-2-(1,3-thiazol-4-ylmethyl)pyrrolidine-2-carboxylic acid]	< 200 nM
COC[C@H]1C[C@@](Cn2cccn2)(C(=O)O)N(C(=O)c2ccc(C(C)(C)C)c(OC)c2)[C@H]1c1ncc(C)s1 (single isomer, unassigned; enantiomer a) [Example 11]	< 200 nM
COC[C@H]1C[C@@](CC(C)C)(C(=O)O)N(C(=O)c2ccc(C(C)(C)C)c(OC)c2)[C@H]1c1nccs1 (racemic) [Compound A, rel-(2S,4S,5R)-2-isobutyl-1-(3-methoxy-4-tert-butylbenzoyl)-4-methoxymethyl-5-(1,3-thiazol-2-yl)pyrrolidine-2-carboxylic acid, reference compound]	> 500 nM
COC[C@H]1C[C@@](Cc2ccccc2)(C(=O)O)N(C(=O)c2ccc(C(C)(C)C)c(OC)c2)[C@H]1c1nccs1 (racemic) [Compound E, rel-(2R,4S,5R)-2-benzyl-1-(3-methoxy-4-tert-butylbenzoyl)-4-methoxymethyl-5-(1,3-thiazol-2-yl)-pyrrolidine-2-carboxylic acid, reference compound]	200 to 500 nM
COC[C@H]1C[C@@](Cn2cccn2)(C(=O)O)N(C(=O)c2ccc(C(C)(C)C)c(OC)c2)[C@H]1c1nccs1 (racemic) [Example 6, rel-(2R,4S,5R)-1-(3-Methoxy-4-tert-butylbenzoyl)-4-(methoxymethyl)-2-(1H-pyrazol-1-ylmethyl)-5-(1,3-thiazol-2-yl)pyrrolidine-2-carboxylic acid]	< 200 nM
